Experimental data: US11246822B2, “Biomedical composition for skin care and/or maintenance and delaying and/or inhibiting skin aging and the use thereof” (INDUSTRIAL TECHNOLOGY RESEARCH INSTITUTE, priority 2019, dated 2022)

Experiments:
[1] = Antioxidant degradation evaluation assay (iodometric titration of vitamin C); type: physicochemical; conditions: vitamin C 10 μg/ml
Procedure: This assay was performed according to a method modified from the method shown by Roberts et al. (1997). First, a liquid sample containing a specific antioxidant at a concentration to be tested was prepared, and the liquid sample containing the specific antioxidant was added into a 250 mL Erlenmeyer flask by a pipette and deionized water was added the to the Erlenmeyer flask to reach the 100 mL scale mark. At the same time, 1 mL of 0.1 M sodium iodide (NaI) and 1 mL of 0.1 M hydrochloric acid (hydrogen chloride, HCl) and 1 mL of 2% starch aqueous solution (indicator) were added to the Erlenmeyer flask. Next, a burette was rinsed the with 0.025 M potassium iodate (KIO3) at least twice, first, and then filled with 0.025 M potassium iodate in a technique of avoiding bubble formation during the filling, and the initial volume of the solution (Vi) in the burette was record after the filling. Thereafter, the liquid sample containing the specific antioxidant mentioned above was titrated with 0.025 M potassium iodate. […] Depending on the condition, the titration operation mentioned above could be repeated two or three times, as appropriate. Finally, the specific antioxidant content could be calculated from the titration volume of potassium iodate.

[2] = ABTS free radical scavenging assay; conditions: vitamin C 10 μg/ml, normal temperature
Procedure: Antioxidant capacity of a sample to be tested was evaluate by ABTS (English full name: 2,2′-azinobis-3-ethyl benzothiazoline-6-sulphonic acid) free radical scavenging test. Since ABTS and potassium persulphate (K2S2O8) will produce an oxidation reaction and form a stable blue-green water-soluble ABTS⋅^+ radical ion with a maximum absorption peak at 734 nm, ABTS⋅^+ free radical concentration can be detected through A734 nm. When the ABTS⋅^+ radical solution is added with an antioxidant (radical scavenger), the original single radicals are paired, causing the ABTS⋅^+ radical solution to fade and the A734 nm absorption value to decrease, thereby evaluating Free radical scavenging ability of the antioxidant can be evaluated.
The mixed solution was placed in a dark room at room temperature for 16 hours of reaction to form stable ABTS⋅^+ radical ions (blue-green), and then the mixed solution was diluted with deionized water to form a ABTS⋅^+ radical ion working solution with absorbance of 0.75±0.05 at 734 nm by a spectrophotometer.
Next, a sample to be tested and standards (Trolox) with different concentrations were added to the ABTS⋅^+ radical ion working solution, respectively, and a group in which only deionized water was added was used as a control group. Absorbance at 734 nm was detected by a spectrophotometer after 20 minutes of reaction. Abilities to scavenge ABTS⋅+ radicals of the standards (Trolox) with different concentrations were plotted as a scavenging standard curve. The measured absorbance of the sample to be tested and the control group are converted according to the standard curve to know the free radical scavenging ability of the sample to be tested. The formula for calculating the scavenging ability is: (1-ABSsample/ABScontrol)×100.

[3] = DPPH free radical scavenging assay; conditions: normal temperature; for DPPH free radical capture rate: vitamin C 10 μg/ml
Procedure: DPPH is a stable free radical. When it is dissolved in methanol or ethanol, it will appear purple and has a strong absorbance at 515 nm. When the sample to be tested can directly react with DPPH radicals, it will block the […] reaction of DPPH free radicals. At this time, the DPPH solution which originally appeared blue-violet will turn into clear yellow, and the absorbance at 515 nm will decrease, and that means that the sample to be tested has an antioxidant component that captures DPPH free radicals. The lighter the color become, the stronger ability to capture DPPH free radicals the antioxidant component has, which means the better the antioxidant capacity of the sample to be tested has. This assay was performed according to a method modified from the method shown by Parejo et al (2003). Aqueous solution of the sample to be tested and standards (Glutathione) with different concentrations each 30 μl were added to the 96-well plate, respectively, and water was used as a blank control. Thereafter, 120 μl of 100 mM Tris-HCl buffer (pH 7.4) was added to the plate and then 150 μl of 500 μM DPPH (Sigma Sigma) ethanol solution was immediately added and uniformly mixed at room temperature and allowed to stand in the dark for 20 minutes. After that, absorbance at 515 nm was detected by a spectrophotometer. The more DPPH free radicals were scavenged, the more the absorbance value decreased. Ability of each sample to be tested to scavenge DPPH free radicals (also means the strength of the hydrogen supply capacity of the sample to be tested) can be determined by percentage of decrease in absorbance relative to the blank control group.

[4] = room temperature (about 26° C.), 24 hours

- vitamin C concentration decreased ([1]; 40° C., 4 hours): 20.4%
- vitamin C concentration, % of the initial concentration ([1]; 40° C., 24 hours): about 24.3%
- vitamin C concentration, % of the initial concentration ([1]; 40° C., 72 hours): 3.3%
- vitamin C concentration reduced / degraded [1, 4]: 62.6%
- vitamin C concentration, % of the initial concentration [1, 4]: about 40%
- vitamin C concentration, % of the initial concentration ([1]; room temperature (about 26° C.), 72 hours): about 0.9%
Structure (SMILES): O=C1O[C@H]([C@@H](O)CO)C(O)=C1O [vitamin C, ascorbic acid]
- ABTS radical ion scavenging rate ([2]; 0 hours): 57.08%
- ABTS radical ion scavenging rate ([2]; 72 hours): 2.49%
- ABTS radical ion scavenging rate ([2]; after 24 hours): 22.45%
- decrease of antioxidant capacity (DPPH) ([3]; after 24 hours): about 60%
- DPPH free radical capture rate ([3]; 0 hour): 86.77%
- DPPH free radical capture rate ([3]; 72 hours): 2.99%
- DPPH free radical capture rate ([3]; after 24 hours): 34.67%
